Patent US20250215029A1 (Recludix Pharma, Inc., priority 2022, published 2025)
Where two headings read alike, the source gives them in different places.

Legend:
[1] = target: T1, Recombinant STAT3 protein (STAT3 (G127-I722)) (Homo sapiens, UniProt P40763); experiment: STAT3 Fluorescence Polarization (FP) Assay; type: binding; conditions: probe 5-FAM-GpYLPQTV-NH2 2 nM, 45-minute incubation
T1 construct: Recombinant STAT3 protein (STAT3 (G127-I722))
In short: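 In this competition FP format, STAT3 residues G127-I722 (25 nM) and 2 nM 5-FAM-GpYLPQTV-NH2 met test compounds for 45 min at room temperature. IC50 values result from fitting mP signal against log concentration by nonlinear regression.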

[2] = target: T2, Recombinant STAT6 protein (STAT6 (W123-T658)) (Homo sapiens, UniProt P42226); experiment: STAT6 Fluorescence Polarization (FP) Assay; type: binding; conditions: probe 5-FAM-Ap[…]-NH2 2 nM, 45-minute incubation
T2 construct: Recombinant STAT6 protein (STAT6 (W123-T658))
T2 sequence (P42226 123-658): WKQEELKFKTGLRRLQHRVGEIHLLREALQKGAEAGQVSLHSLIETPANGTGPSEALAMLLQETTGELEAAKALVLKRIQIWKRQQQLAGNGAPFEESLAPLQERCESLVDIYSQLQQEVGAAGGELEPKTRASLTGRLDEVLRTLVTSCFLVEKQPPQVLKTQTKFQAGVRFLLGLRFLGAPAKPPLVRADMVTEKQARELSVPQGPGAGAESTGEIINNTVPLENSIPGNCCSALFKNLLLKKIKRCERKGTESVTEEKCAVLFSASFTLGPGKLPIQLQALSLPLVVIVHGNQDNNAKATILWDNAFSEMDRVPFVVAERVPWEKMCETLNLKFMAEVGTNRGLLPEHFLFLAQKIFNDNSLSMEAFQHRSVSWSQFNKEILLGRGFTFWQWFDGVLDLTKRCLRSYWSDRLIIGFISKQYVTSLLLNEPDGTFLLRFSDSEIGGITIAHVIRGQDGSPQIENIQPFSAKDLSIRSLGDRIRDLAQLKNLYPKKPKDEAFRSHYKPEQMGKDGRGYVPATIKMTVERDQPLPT
In short: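 Protein-probe mix (250 nM STAT6 W123-T658, 2 nM 5-FAM-pTyr peptide) in 10 mM HEPES pH 7.4, 50 mM NaCl, 1 mM EDTA, 0.05% Tween 20, 2 mM DTT; added to compound dilution series, 1% DMSO final; 45 min RT; FP read; IC50 via nonlinear regression.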

[3] = STAT3 25 nM, read-out: STAT3 (FP assay IC50)
[4] = STAT6 250 nM, read-out: STAT6 (FP assay IC50)
[5] = STAT3 (G127-I722) 25 nM, read-out: STAT3 (FP assay IC50 class)
[6] = STAT6 (W123-T658) 250 nM, read-out: STAT6 (FP assay IC50 class)

T1 sequence (P40763 127-722): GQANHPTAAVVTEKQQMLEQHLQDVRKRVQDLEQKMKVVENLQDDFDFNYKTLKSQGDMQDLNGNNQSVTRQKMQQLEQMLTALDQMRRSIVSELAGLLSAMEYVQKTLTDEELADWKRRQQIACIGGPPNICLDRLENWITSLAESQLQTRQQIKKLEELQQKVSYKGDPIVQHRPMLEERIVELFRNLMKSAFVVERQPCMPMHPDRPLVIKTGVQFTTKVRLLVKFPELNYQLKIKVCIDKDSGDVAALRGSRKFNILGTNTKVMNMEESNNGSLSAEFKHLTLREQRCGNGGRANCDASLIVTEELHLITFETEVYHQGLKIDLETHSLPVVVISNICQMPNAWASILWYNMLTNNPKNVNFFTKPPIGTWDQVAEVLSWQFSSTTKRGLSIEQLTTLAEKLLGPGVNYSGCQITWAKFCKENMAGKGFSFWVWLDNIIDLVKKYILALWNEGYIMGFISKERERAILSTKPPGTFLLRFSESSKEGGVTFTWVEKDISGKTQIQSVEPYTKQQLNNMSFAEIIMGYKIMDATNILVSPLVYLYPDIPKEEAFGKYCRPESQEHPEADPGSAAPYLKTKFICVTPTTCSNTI

Row | IC50 [1, 3] | IC50 [2, 4] | IC50 [1, 5] | IC50 [2, 6] | SMILES
1 | 0.1 to 1 µM | ≤ 0.3 µM |  |  | N#C[C@@H]1CN(C(=O)[C@@H]2CC[C@@H]3CCC[C@H](NC(=O)c4cc5cc(C(F)(F)P(=O)(O)O)ccc5s4)C(=O)N32)C[C@H]1c1ccccc1 (relative stereo) [Compound 96, ((2-(((3S,6S,9aS)-3-(rel-(trans)-3-cyano-4-phenylpyrrolidine-1-carbonyl)-5-oxooctahydro-1H-pyrrolo [1,2-a]azepin-6-yl)carbamoyl)benzo[b]thiophen-5-yl)difluoromethyl) phosphonic acid]
2 | 0.1 to 1 µM | 3 to 30 µM |  |  | CS(=N)(=O)C1CN(C(=O)[C@@H]2CC[C@@H]3CCCC[C@H](NC(=O)c4cc5cc(C(F)(F)P(=O)(O)O)ccc5s4)C(=O)N32)C1 (stereo partly drawn) [Compound 73, (difluoro(2-(((3S,6S,10aS)-3-(3-(S-methylsulfonimidoyl)azetidine-1-carbonyl)-5-oxodecahydropyrrolo [1,2-a]azocin-6-yl)carbamoyl)benzo[b]thiophen-5-yl)methyl) phosphonic acid]
3 |  |  | < 0.1 µM | 3 to 30 µM | CC(C)Oc1ccncc1C1CN(C(=O)[C@@H]2CC[C@@H]3C[C@@H](C)C[C@H](NC(=O)c4cc5cc([C@H](F)P(=O)(O)O)ccc5s4)C(=O)N32)C1 (single isomer, unassigned) [Compound 748]
4 |  |  | < 0.1 µM | 3 to 30 µM | CN(C)c1ncncc1C1CN(C(=O)[C@@H]2CC[C@@H]3CCC[C@H](NC(=O)c4cc5cc(CP(=O)(O)O)ccc5s4)C(=O)N32)C1 [Compound 863, ((2-(((3S,6S,9aS)-3-(3-(4-(dimethylamino)pyrimidin-5-yl)azetidine-1-carbonyl)-5-oxooctahydro-1H-pyrrolo[1,2-a]azepin-6-yl)carbamoyl)benzo [b]thiophen-5-yl)methyl) phosphonic acid]
5 | < 0.1 µM | 0.3 to 3 µM |  |  | C[C@@H]1[C@@H](n2ccnc2)CN1C(=O)[C@@H]1CC[C@@H]2CCC[C@H](NC(=O)c3cc4cc(C(F)(F)P(=O)(O)O)ccc4s3)C(=O)N21 [Compound 81, ((2-(((3S,6S,9aS)-3-((2R,3S)-3-(1H-imidazol-1-yl)-2-methylazetidine-1-carbonyl)-5-oxooctahydro-1H-pyrrolo[1,2-a]azepin-6-yl)carbamoyl)benzo[b]thiophen-5-yl)difluoromethyl) phosphonic acid]
6 |  |  | < 0.1 µM | 3 to 30 µM | O=C(N[C@H]1CCC[C@H]2CC[C@@H](C(=O)N3CC(c4cnccc4N4CCOCC4)C3)N2C1=O)c1cc2cc([C@H](F)P(=O)(O)O)ccc2s1 (single isomer, unassigned) [Compound 746]
7 |  |  | 1 to 10 µM | 0.3 to 3 µM | O=C(N[C@H]1CCCC[C@H]2CC[C@@H](C(=O)N3CC(c4ccccc4)CC34CC4)N2C1=O)c1cnc2ccc(CP(=O)(O)O)cc2c1 (stereo partly drawn) [Compound 895, ((3-(((3S,6S,10aS)-5-oxo-3-(6-phenyl-4-azaspiro[2.4]heptane-4-carbonyl)decahydropyrrolo[1,2-a]azocin-6-yl)carbamoyl)quinolin-6-yl)methyl) phosphonic acid]
8 |  |  | 0.1 to 1 µM | 3 to 30 µM | O=C(N[C@H]1CCCC[C@H]2CC[C@@H](C(=O)NC(CO)c3c[nH]c4ncccc34)N2C1=O)c1cc2cc(C(F)(F)P(=O)(O)O)ccc2s1 (stereo partly drawn) [Compound 645, (difluoro(2-(((3S,6S,10aS)-3-((2-hydroxy-1-(1H-pyrrolo[2,3-b]pyridin-3-yl)ethyl)carbamoyl)-5-oxodecahydropyrrolo [1,2-a]azocin-6-yl)carbamoyl)benzo [b]thiophen-5-yl)methyl) phosphonic acid]
9 |  |  | 0.1 to 1 µM | 0.3 to 3 µM | O=C(N[C@H]1CCCC[C@H]2CC[C@@H](C(=O)NCc3ccc4nccnc4c3)N2C1=O)c1cc2cc(C(F)(F)P(=O)(O)O)ccc2s1 [Compound 825, (difluoro(2-(((3S,6S,10aS)-5-oxo-3-((quinoxalin-6-ylmethyl)carbamoyl)decahydropyrrolo [1,2-a]azocin-6-yl)carbamoyl)benzo [b]thiophen-5-yl)methyl) phosphonic acid]
10 | > 10 µM | 3 to 30 µM |  |  | O=C(/C=C/c1ccc(C(F)(F)P(=O)(O)O)cc1)N[C@H]1CCC[C@H]2CC[C@@H](C(=O)Nc3ccc(-c4ccccc4)cc3)N2C1=O [Compound 35, ((4-((E)-3-(((3S,6S,9S)-3-([1,1′-biphenyl]-4-ylcarbamoyl)-5-oxooctahydro-1H-pyrrolo[1,2-a]azepin-6-yl)amino)-3-oxoprop-1-en-1-yl)phenyl)difluoromethyl) phosphonic acid]
11 |  |  | 0.1 to 1 µM | 3 to 30 µM | Cn1cc(C2CN(C(=O)[C@@H]3CC[C@@H]4CCC[C@H](NC(=O)c5cc6cc(C(F)P(=O)(O)O)ccc6s5)C(=O)N43)C2)c(F)n1 (stereo partly drawn) [Compound 715, (fluoro(2-(((3S,6S,9aS)-3-(3-(3-fluoro-1-methyl-1H-pyrazol-4-yl)azetidine-1-carbonyl)-5-oxooctahydro-1H-pyrrolo[1,2-a]azepin-6-yl)carbamoyl)benzo [b]thiophen-5-yl)methyl) phosphonic acid]
12 | < 0.1 µM | 3 to 30 µM |  |  | O=C(N[C@H]1CCC[C@H]2CC[C@@H](C(=O)N3CC(c4ncccn4)C3)N2C1=O)c1cc2cc(C(F)(F)P(=O)(O)O)ccc2s1 [Compound 46, (difluoro(2-(((3S,6S,9aS)-5-oxo-3-(3-(pyrimidin-2-yl)azetidine-1-carbonyl)octahydro-1H-pyrrolo[1,2-a]azepin-6-yl)carbamoyl)benzo[b]thiophen-5-yl)methyl) phosphonic acid]
13 | 0.1 to 1 µM | 3 to 30 µM |  |  | O=C(N[C@H]1C[C@@H](OCc2ccccc2)CC[C@H]2CC[C@@H](C(=O)N3CC(C(=O)N4CCOCC4)C3)N2C1=O)c1cc2cc(C(F)(F)P(=O)(O)O)ccc2s1 [Compound 8, ((2-(((3S,6S,8S,10aR)-8-(benzyloxy)-3-(3-(morpholine-4-carbonyl)azetidine-1-carbonyl)-5-oxodecahydropyrrolo [1,2-a]azocin-6-yl)carbamoyl)benzo [b]thiophen-5-yl)difluoromethyl) phosphonic acid]
14 |  |  | 0.1 to 1 µM | 3 to 30 µM | COc1c(C2CN(C(=O)[C@@H]3CC[C@@H]4CCC[C@H](NC(=O)c5cc6cc(C(F)P(=O)(O)O)ccc6s5)C(=O)N43)C2)cnn1C (stereo partly drawn) [Compound 629, (fluoro(2-(((3S,6S,9aS)-3-(3-(5-methoxy-1-methyl-1H-pyrazol-4-yl)azetidine-1-carbonyl)-5-oxooctahydro-1H-pyrrolo[1,2-a]azepin-6-yl)carbamoyl)benzo [b]thiophen-5-yl)methyl) phosphonic acid]
15 |  |  | < 0.1 µM | 3 to 30 µM | Cc1ccncc1C1CN(C(=O)[C@@H]2CC[C@@H]3CCC[C@H](NC(=O)c4cc5cc([C@H](F)P(=O)(O)O)ccc5s4)C(=O)N32)C1 (single isomer, unassigned) [Compound 636]
16 |  |  | 0.1 to 1 µM | 0.3 to 3 µM | COc1cccnc1C1CN(C(=O)[C@@H]2CC[C@@H]3CCC[C@H](NC(=O)c4cc5cc(C(F)(F)P(=O)(O)O)ccc5s4)C(=O)N32)C1 [Compound 826, (difluoro(2-(((3S,6S,9aS)-3-(3-(3-methoxypyridin-2-yl)azetidine-1-carbonyl)-5-oxooctahydro-1H-pyrrolo[1,2-a]azepin-6-yl)carbamoyl)benzo [b]thiophen-5-yl)methyl) phosphonic acid]
17 |  |  | 1 to 10 µM | 3 to 30 µM | O=C(N[C@H]1CCCC[C@H]2CC[C@@H](C(=O)N3CCC(c4cccnc4)C3)N2C1=O)c1ccc2ccc(CP(=O)(O)O)cc2c1 (stereo partly drawn) [Compound 217, ((7-(((3S,6S,10aS)-5-oxo-3-(3-(pyridin-3-yl)pyrrolidine-1-carbonyl)decahydropyrrolo[1,2-a]azocin-6-yl)carbamoyl)naphthalen-2-yl)methyl)phosphonic acid]
18 | 0.1 to 1 µM | 3 to 30 µM |  |  | O=C(N[C@H]1CC[C@H](O)C[C@H]2CC[C@@H](C(=O)N3CC(C(=O)N4CCOCC4)C3)N2C1=O)c1cc2cc(C(F)(F)P(=O)(O)O)ccc2s1 [Compound 5, (difluoro(2-(((3S,6S,9S,10aR)-9-hydroxy-3-(3-(morpholine-4-carbonyl)azetidine-1-carbonyl)-5-oxodecahydropyrrolo [1,2-a]azocin-6-yl)carbamoyl)benzo[b]thiophen-5-yl)methyl)phosphonic acid]
